Data from publication PMC6689975, “Novel Cell Wall Antifungals Reveal a Special Synergistic Activity in pbr1 Mutants Resistant to the Glucan Synthesis Antifungals Papulacandins and Echinocandins” (Frontiers in Microbiology, 2019).
≈ marks a conversion by molar mass, not a printed value.

The compounds below were run on C. albicans wild-type (assay: microbe, parasite or virus in culture). Settings: Candida albicans, 48 h, read-out: MIC.
Design: species or system whole yeast cells; macro tube broth dilution MIC in YEPD at 30 C, visual clearness of medium
Description: (§1) Standard YEPD (Yeast Extract, Peptone, Dextrose) ([Sherman, 1990]), YEPD+S (YEPD with 1.2M sorbitol), YES (Yeast Extract, Dextrose and Supplements of Adenine, Histidine, Leucine, Uracil and Lysine) ([Alfa et al., 1993]) and YES+S (YES with 1.2 M sorbitol) ([Ribas et al., 1991]; [Ishiguro et al., 1997]), media were used for determination of MIC values of the tested compounds. A stock solution of 10 mg/ml of each tested compounds was prepared in DMSO and serial dilutions in DMSO were prepared. The final concentration of DMSO was 2% in the YEPD medium. […] The serial dilutions of compounds were dispensed into test tubes with 1 ml of YEPD or YEPD+S to make final concentrations of 200, 100, 50, 25, 12.5, 6.26, 3.125, 1.6, 0.8 and 0.4 μg/ml. The tested yeast strains were previously grown in YEPD, YEPD+S, YES or YES+S agar plates at 30°C for 48 h. For inoculation of YEPD or YEPD+S macro test tubes a suspension of tested fungus was produced with 10^5 cfu/ml (cfu - colony forming unit). 10 μl of suspension was used for inoculation of each tube. After 48 h incubation at 30°C the tubes were checked. The MIC value is the lowest concentration of the tested compound that could inhibit the fungal growth and the medium remained clear. From each tube 10 μl culture was plated on YEPD agar medium to check the contamination. The MIC tests were carried out in three parallels. The screening of the first generation of isochromanones was carried out in YEPD and YEPD+S media (1E-16E). The fungal strains analyzed are: C. albicans wild-type ATCC 26555, SC5314 and ATCC 90028, S. cerevisiae wild-type CVX12-3A and pbr1-1 mutant, and S. pombe wild-type (972h^–), pbr1-8 mutant and pbr1-6 mutant. The bold numbers in Tables 4–6 indicate the more efficient compounds. […] The weak or moderate efficacy against the C. albicans wild-type strains was observed by some substances (3E, 4Z, 5Z, 10E, 15, and 16E). The efficiency toward the S. pombe pbr1-6 mutant strain was the highest inhibitory activity, except 7E, 11E, 12 and 14E. […] As regards the other S. pombe pbr1-8 mutant strain, the antifungal activity of the tested compounds was slightly lower, but the substances with the best activity are partly identical to the best compounds mentioned with pbr1-6, (i.e., 1E, 3E, 4Z, 5Z).
Work on `O=C1OCc2ccccc2/C1=C\c1ccccc1` [1E] yielded an MIC of 200 µg/mL (≈ 846 µM). `O=C1OCc2ccccc2/C1=C/c1ccccc1` [1Z] showed an MIC greater than 200 µg/mL. `O=C1OCc2ccccc2/C1=C\c1ccc(C(=O)O)cc1` [2E] showed an MIC of 200 µg/mL (≈ 714 µM). Compound `O=C1OCc2ccccc2/C1=C\c1cccnc1` [3E] has an MIC of 100 µg/mL (≈ 421 µM). For `Cn1cccc1/C=C1/C(=O)OCc2ccccc21` [4E], the MIC was 200 µg/mL (≈ 836 µM).

These compounds were tested on T1, S. cerevisiae wild-type CVX12-3A (assay: microbe, parasite or virus in culture). Settings: Saccharomyces cerevisiae, 48 h, read-out: MIC.
T1 construct: CVX12-3A
Design: species or system whole yeast cells; macro tube broth dilution MIC in YEPD at 30 C, visual clearness of medium
Description: as §1
In the case of `O=C1OCc2ccccc2/C1=C\c1ccccc1` [1E], the MIC is reported as 100 µg/mL (≈ 423 µM). In the case of `O=C1OCc2ccccc2/C1=C/c1ccccc1` [1Z], the MIC is reported as 100 µg/mL (≈ 423 µM). For `O=C1OCc2ccccc2/C1=C\c1ccc(C(=O)O)cc1` [2E], the MIC was 100 µg/mL (≈ 357 µM). In the case of `O=C1OCc2ccccc2/C1=C\c1cccnc1` [3E], the MIC is reported as 50 µg/mL (≈ 211 µM). `Cn1cccc1/C=C1/C(=O)OCc2ccccc21` [4E] was tested, and the MIC was 100 µg/mL (≈ 418 µM).

Each compound was assayed on T2, S. pombe wild-type 972 h- (assay: microbe, parasite or virus in culture). Settings: Schizosaccharomyces pombe, 48 h, read-out: MIC.
T2 construct: 972 h-
Design: species or system whole yeast cells; macro tube broth dilution MIC in YEPD at 30 C, visual clearness of medium
Description: as §1
`O=C1OCc2ccccc2/C1=C\c1ccccc1` [1E] gave an MIC of 25 µg/mL (≈ 106 µM). `O=C1OCc2ccccc2/C1=C/c1ccccc1` [1Z] showed an MIC of 50 µg/mL (≈ 212 µM). `O=C1OCc2ccccc2/C1=C\c1ccc(C(=O)O)cc1` [2E] gave an MIC of 50 µg/mL (≈ 178 µM). Work on `O=C1OCc2ccccc2/C1=C\c1cccnc1` [3E] yielded an MIC of 25 µg/mL (≈ 105 µM). `Cn1cccc1/C=C1/C(=O)OCc2ccccc21` [4E] gave an MIC of 50 µg/mL (≈ 209 µM).

Tested on: C. albicans wild-type
Assay: microbe, parasite or virus in culture
Design: species or system whole yeast cells; macro tube broth dilution MIC in YEPD at 30 C, visual clearness of medium
Settings: Candida albicans, 48 h, read-out: MIC
Remark: another data set of the same source
Description: as §1
Work on `O=C1OCc2ccccc2/C1=C\c1ccccc1` [1E] yielded an MIC of 200 µg/mL (≈ 846 µM). Compound `O=C1OCc2ccccc2/C1=C/c1ccccc1` [1Z] has an MIC greater than 200 µg/mL. Work on `O=C1OCc2ccccc2/C1=C\c1ccc(C(=O)O)cc1` [2E] yielded an MIC of 200 µg/mL (≈ 714 µM). `O=C1OCc2ccccc2/C1=C\c1cccnc1` [3E] showed an MIC of 100 µg/mL (≈ 421 µM). With `Cn1cccc1/C=C1/C(=O)OCc2ccccc21` [4E] the MIC was 200 µg/mL (≈ 836 µM).

Tested on: C. albicans wild-type
Assay: microbe, parasite or virus in culture
Design: species or system whole yeast cells; macro tube broth dilution MIC in YEPD at 30 C, visual clearness of medium
Settings: Candida albicans, 48 h, read-out: MIC
Remark: another data set of the same source
Description: as §1
`O=C1OCc2ccccc2/C1=C\c1ccccc1` [1E] was tested, and the MIC was 200 µg/mL (≈ 846 µM). With `O=C1OCc2ccccc2/C1=C/c1ccccc1` [1Z] the MIC was 200 µg/mL (≈ 846 µM). For `O=C1OCc2ccccc2/C1=C\c1ccc(C(=O)O)cc1` [2E], the MIC was 200 µg/mL (≈ 714 µM). `O=C1OCc2ccccc2/C1=C\c1cccnc1` [3E] showed an MIC of 50 µg/mL (≈ 211 µM). `Cn1cccc1/C=C1/C(=O)OCc2ccccc21` [4E] gave an MIC of 200 µg/mL (≈ 836 µM).

These compounds were tested on C. albicans wild-type (assay: microbe, parasite or virus in culture). Settings: Candida albicans, read-out: MIC.
Design: species or system whole yeast cells; micro-culture broth dilution MIC in YES at 30 C, turbidity, complete growth inhibition
Description: (§2) Standard YEPD (Yeast Extract, Peptone, Dextrose) ([Sherman, 1990]), YEPD+S (YEPD with 1.2M sorbitol), YES (Yeast Extract, Dextrose and Supplements of Adenine, Histidine, Leucine, Uracil and Lysine) ([Alfa et al., 1993]) and YES+S (YES with 1.2 M sorbitol) ([Ribas et al., 1991]; [Ishiguro et al., 1997]), media were used for determination of MIC values of the tested compounds. A stock solution of 10 mg/ml of each tested compounds was prepared in DMSO and serial dilutions in DMSO were prepared. The final concentration of DMSO was 2% in the YEPD medium. […] The serial dilutions of compounds were dispensed into test tubes with 1 ml of YEPD or YEPD+S to make final concentrations of 200, 100, 50, 25, 12.5, 6.26, 3.125, 1.6, 0.8 and 0.4 μg/ml. The tested yeast strains were previously grown in YEPD, YEPD+S, YES or YES+S agar plates at 30°C for 48 h. Micro-culture assays of large numbers of samples were analyzed as described) ([Martins et al., 2011]). Essentially early log-phase cells were grown in YEPD, YEPD+S, YES or YES+S (1.2 M sorbitol) medium at 30°C, and diluted to cell density of 4 X 10^6 cells/ml in YEPD, YEPD+S, YES or YES+S medium and aliquots of 100 μl were dispensed into each small test tube (3 ml test tube size). Then, another 100 μl of YEPD, YEPD+S, YES or YES+S with the corresponding dilution of each compound at 2X concentration (4% DMSO) was added. The final volume was 200 μl, with the cells diluted to of 2 X 10^6 cells/ml and each compound diluted to 1X final concentration, containing increasing concentrations of antifungal (0, 1, 2, 5, 10, 20, 50, 100 and 200 μg/ml) or an equivalent volume of solvent (2% DMSO). The cells were grown at 30°C in an orbital roller and turbidity was analyzed after 24 and 48 h of incubation. The MIC was determined as the minimal concentration of tested compound that produced complete cell growth inhibition and kept the medium clear. The MIC values were calculated from at least three independent experiments. Next, the first generation of isochromanones (1E-16E) was also screened in YES medium (Table 5) and exerted a weaker antifungal potency than in YEPD medium and also than the second family of isochromanones in YES medium (17E-30E) (Table 6). The strains are partly different from the previously mentioned ones (Tables 5, 6) analyzing two wild type C. albicans strains because they behaved similarly in YEPD. It is remarkable that there was no effect against either the C. albicans, the S. cerevisiae, or the S. pombe wild-type strains, except with 30E.
For `O=C1OCc2ccccc2/C1=C\c1ccccc1` [1E], the MIC was greater than 200 µg/mL. In the case of `O=C1OCc2ccccc2/C1=C/c1ccccc1` [1Z], the MIC is reported as greater than 200 µg/mL. `O=C1OCc2ccccc2/C1=C\c1ccc(C(=O)O)cc1` [2E] gave an MIC greater than 200 µg/mL. `O=C1OCc2ccccc2/C1=C\c1cccnc1` [3E] showed an MIC greater than 200 µg/mL. With `Cn1cccc1/C=C1/C(=O)OCc2ccccc21` [4E] the MIC was greater than 200 µg/mL.

Each compound was assayed on T1, S. cerevisiae wild-type CVX12-3A (assay: microbe, parasite or virus in culture). Settings: Saccharomyces cerevisiae, read-out: MIC.
Design: species or system whole yeast cells; micro-culture broth dilution MIC in YES at 30 C, turbidity, complete growth inhibition
Description: as §2
Compound `O=C1OCc2ccccc2/C1=C\c1ccccc1` [1E] has an MIC greater than 200 µg/mL. `O=C1OCc2ccccc2/C1=C/c1ccccc1` [1Z] showed an MIC greater than 200 µg/mL. `O=C1OCc2ccccc2/C1=C\c1ccc(C(=O)O)cc1` [2E] was tested, and the MIC was greater than 200 µg/mL. In the case of `O=C1OCc2ccccc2/C1=C\c1cccnc1` [3E], the MIC is reported as 200 µg/mL (≈ 843 µM). With `Cn1cccc1/C=C1/C(=O)OCc2ccccc21` [4E] the MIC was greater than 200 µg/mL.

The compounds below were run on T2, S. pombe wild-type 972 h- (assay: microbe, parasite or virus in culture). Settings: Schizosaccharomyces pombe, read-out: MIC.
Design: species or system whole yeast cells; micro-culture broth dilution MIC in YES at 30 C, turbidity, complete growth inhibition
Description: as §2
Compound `O=C1OCc2ccccc2/C1=C\c1ccccc1` [1E] has an MIC greater than 200 µg/mL. `O=C1OCc2ccccc2/C1=C/c1ccccc1` [1Z] showed an MIC greater than 200 µg/mL. `O=C1OCc2ccccc2/C1=C\c1ccc(C(=O)O)cc1` [2E] gave an MIC greater than 200 µg/mL. Work on `O=C1OCc2ccccc2/C1=C\c1cccnc1` [3E] yielded an MIC of 200 µg/mL (≈ 843 µM). For `Cn1cccc1/C=C1/C(=O)OCc2ccccc21` [4E], the MIC was greater than 200 µg/mL.
